Literature values, collected in paper PMC10239758 (European journal of medicinal chemistry, 2023).
In brackets after ≈: the same amount, converted by molar mass.

Tested on: Mtb strain H37Rv
Conditions: cited from earlier work

## Cc1cc(C)c2cc(C(=O)NC3CCCCCC3)[nH]c2c1 [Compound 6]
  MIC H37Rv: 3.9 ng/mL (≈ 0.0137 µM)
